According to ChEMBL document CHEMBL1142811, “Design and syntheses of melanocortin subtype-4 receptor agonists. Part 2: discovery of the dihydropyridazinone motif” (Bioorg Med Chem Lett, 2005):

How the values were obtained:
[1] = biological target: T1, Melanocortin receptor 4 (Homo sapiens, UniProt P32245); test: Inhibition of [125I]-NDP- alpha-MSH binding to human melanocortin 4 receptor expressed in CHO cells; type: cell-based
[2] = biological target: T2, Melanocortin receptor 5 (Homo sapiens, UniProt P33032); test: Effective concentration against human melanocortin 5 receptor in cAMP release assay; type: functional
[3] = biological target: T3, Melanocyte-stimulating hormone receptor (Homo sapiens, UniProt Q01726); test: Inhibition of [125I]-NDP- alpha-MSH binding to human melanocortin 1 receptor
Target sequence in this assay (Q01726 whole entry): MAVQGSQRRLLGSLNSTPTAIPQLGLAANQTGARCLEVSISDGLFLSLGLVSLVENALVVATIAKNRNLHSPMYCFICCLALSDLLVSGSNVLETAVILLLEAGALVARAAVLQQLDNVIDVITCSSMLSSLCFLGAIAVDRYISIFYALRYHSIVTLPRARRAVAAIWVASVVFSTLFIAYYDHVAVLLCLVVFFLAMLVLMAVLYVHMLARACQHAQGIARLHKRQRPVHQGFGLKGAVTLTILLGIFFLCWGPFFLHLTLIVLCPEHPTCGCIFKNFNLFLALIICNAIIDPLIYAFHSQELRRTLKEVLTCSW

[4] = biological target: T4, Melanocortin receptor 3 (Homo sapiens, UniProt P41968); test: Inhibition of [125I]-NDP- alpha-MSH binding to human melanocortin 3 receptor
[5] = biological target: T1, Melanocortin receptor 4; test: Inhibition of [125I]-NDP- alpha-MSH binding to human melanocortin 4 receptor
[6] = biological target: T2, Melanocortin receptor 5; test: Inhibition of [125I]-NDP- alpha-MSH binding to human melanocortin 5 receptor
[7] = biological target: T1, Melanocortin receptor 4; test: Effective concentration at human melanocortin 4 receptor in cAMP release assay; type: functional
[8] = biological target: T2, Melanocortin receptor 5; test: Maximum percentage of cAMP accumulation compared to alpha-MSH at human melanocortin 5 receptor; type: functional
[9] = biological target: T4, Melanocortin receptor 3; test: Maximum percentage of cAMP accumulation compared to alpha-MSH at human melanocortin 3 receptor at 10 uM; type: functional
[10] = biological target: T1, Melanocortin receptor 4; test: Maximum percentage of cAMP accumulation relative to alpha-MSH at human melanocortin 4 receptor at 10 uM; type: functional
[11] = biological target: T3, Melanocyte-stimulating hormone receptor; conditions: 10 uM
Target sequence in this assay (Q01726 whole entry, looked up): as the sequence (Q01726 whole entry) above
Description: Maximum percentage of cAMP accumulation compared to alpha-MSH at human melanocortin 1 receptor at 10 uM

[12] = biological target: T3, Melanocyte-stimulating hormone receptor; test: Effective concentration against human melanocortin 1 receptor in cAMP release assay; type: functional
Target sequence in this assay (Q01726 whole entry): as above

[13] = biological target: T4, Melanocortin receptor 3; test: Effective concentration against human melanocortin 3 receptor in cAMP release assay; type: functional
[14] = biological target: T2, Melanocortin receptor 5; test: Maximum percentage of cAMP accumulation compared to alpha-MSH at human melanocortin 5 receptor at 10 uM; type: functional
[15] = biological target: T4, Melanocortin receptor 3; test: Inhibition of [125I]-NDP- alpha-MSH binding to human melanocortin 3 receptor expressed in CHO cells; type: cell-based
[16] = biological target: T2, Melanocortin receptor 5; test: Inhibition of [125I]-NDP- alpha-MSH binding to human melanocortin 5 receptor expressed in CHO cells; type: cell-based
[17] = biological target: T4, Melanocortin receptor 3; test: Maximum percentage of cAMP accumulation compared to alpha-MSH at human melanocortin 3 receptor; type: functional
[18] = biological target: T4, Melanocortin receptor 3; test: Inhibition of [125I]-NDP- alpha-MSH binding to human melanocortin 3 receptor expressed in CHO cell at 4 uM; type: cell-based

T1 sequence (P32245 whole entry): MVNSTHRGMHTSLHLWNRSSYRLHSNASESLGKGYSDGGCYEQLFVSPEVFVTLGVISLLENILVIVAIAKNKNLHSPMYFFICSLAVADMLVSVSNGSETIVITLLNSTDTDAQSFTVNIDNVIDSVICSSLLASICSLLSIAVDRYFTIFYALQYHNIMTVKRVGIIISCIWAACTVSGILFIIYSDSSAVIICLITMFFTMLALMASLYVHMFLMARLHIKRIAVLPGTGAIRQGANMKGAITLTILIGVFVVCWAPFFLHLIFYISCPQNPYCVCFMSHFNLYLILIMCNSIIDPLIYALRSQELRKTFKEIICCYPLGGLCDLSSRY
T2 sequence (P33032 whole entry): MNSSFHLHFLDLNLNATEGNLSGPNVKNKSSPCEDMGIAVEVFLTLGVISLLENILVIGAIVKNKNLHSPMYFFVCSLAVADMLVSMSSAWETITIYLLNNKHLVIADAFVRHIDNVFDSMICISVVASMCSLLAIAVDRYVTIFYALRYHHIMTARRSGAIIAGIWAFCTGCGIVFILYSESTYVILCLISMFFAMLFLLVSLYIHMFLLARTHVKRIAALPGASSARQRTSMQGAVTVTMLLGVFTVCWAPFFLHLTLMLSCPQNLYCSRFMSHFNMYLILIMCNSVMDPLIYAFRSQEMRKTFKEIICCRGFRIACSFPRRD
T4 sequence (P41968 whole entry): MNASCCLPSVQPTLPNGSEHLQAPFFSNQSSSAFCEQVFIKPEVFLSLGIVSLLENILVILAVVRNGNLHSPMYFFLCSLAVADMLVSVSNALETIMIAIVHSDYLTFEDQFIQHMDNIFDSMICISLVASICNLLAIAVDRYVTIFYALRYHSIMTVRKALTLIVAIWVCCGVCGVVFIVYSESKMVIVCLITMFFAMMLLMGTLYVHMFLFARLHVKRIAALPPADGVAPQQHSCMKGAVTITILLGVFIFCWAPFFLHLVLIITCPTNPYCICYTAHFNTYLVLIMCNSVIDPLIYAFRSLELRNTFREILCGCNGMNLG

| SMILES | IC50 [1] | IC50 [3] | IC50 [4] | IC50 [6] | EC50 [7] | Max [9] | Max [10] | Max [14] | IC50 [16] | other results |
| --- | --- | --- | --- | --- | --- | --- | --- | --- | --- | --- |
| COc1ccc(N2N=C(Sc3ccc(Cl)cc3)CC(CC[C@@H](C)NC(=O)[C@H]3CNCC[C@@H]3c3ccc(F)cc3)C2=O)cc1 (stereo in doubt; 26) [listing 1 of 2 here] | 1.5 nM | 230 nM | 420 nM | 1100 nM | 40 nM | – | – | – | – | EC50 [2]: 2400 nM; IC50 [5]: 1.5 nM |
| COc1ccc(N2N=C(Sc3ccc(Cl)cc3)CC(CC[C@@H](C)NC(=O)[C@H]3CNCC[C@@H]3c3ccc(F)cc3)C2=O)cc1 (stereo in doubt; 26) [listing 2 of 2 here] | – | – | – | – | – | 5% | 67% | – | – | Max [8]: 27%; Max [11]: 12% |
| COc1ccc(N2N=C(Sc3ccc(Cl)cc3)CC(CC[C@@H](C)NC(=O)[C@H]3CCNC[C@@H]3c3ccc(F)cc3)C2=O)cc1 (stereo in doubt; 63) [listing 1 of 2 here] | 22 nM | 1100 nM | 4700 nM | 3100 nM | 30 nM | – | – | – | – | EC50 [12]: 220 nM; EC50 [13]: 1100 nM; IC50 [5]: 22 nM |
| COc1ccc(N2N=C(Sc3ccc(Cl)cc3)CC(CC[C@@H](C)NC(=O)C3CNC[C@@H]3c3ccc(F)cc3)C2=O)cc1 (single isomer, unassigned; 67) [listing 1 of 2 here] | – | – | – | – | – | 10% | 90% | 5% | – | – |
| COc1ccc(-n2nc(Sc3ccc(Cl)cc3)cc(CC[C@@H](C)NC(=O)[C@H]3CNCC[C@@H]3c3ccc(F)cc3)c2=O)cc1 | 11 nM | – | – | – | 61 nM | 6% | 71% | 7% | 840 nM | IC50 [15]: 940 nM |
| COc1ccc(N2N=C(Sc3ccc(Cl)cc3)CC(CC[C@@H](C)NC(=O)[C@H]3CCNC[C@@H]3c3ccc(F)cc3)C2=O)cc1 (stereo in doubt; 63) [listing 2 of 2 here] | – | – | – | – | – | – | 98% | 7% | – | Max [17]: 21% |
| COc1ccc(-n2nc(Sc3ccc(Cl)cc3)cc(CC[C@@H](C)NC(=O)[C@H]3CNC[C@@H]3c3ccc(F)cc3)c2=O)cc1 | 70 nM | – | – | – | 110 nM | – | 84% | 5% | 1400 nM | IC50 [15]: > 3000 nM; EC50 [13]: 2400 nM; Max [17]: 24% |
| COc1ccc(N2N=C(Sc3ccc(Cl)cc3)CC(CC[C@@H](C)NC(=O)C3CNC[C@@H]3c3ccc(F)cc3)C2=O)cc1 (single isomer, unassigned; 67) [listing 2 of 2 here] | 18 nM | 290 nM | 1600 nM | 690 nM | 66 nM | – | – | – | – | EC50 [12]: 240 nM |
| COc1ccc(-n2nc(Sc3ccc(Cl)cc3)cc(CC[C@@H](C)NC(=O)[C@H]3CCNC[C@@H]3c3ccc(F)cc3)c2=O)cc1 | 66 nM | – | – | – | 110 nM | 45% | 101% | 1% | 1200 nM | inhibition [18]: 40% |
